Test results taken from PubChem BioAssay AID743029 (The Scripps Research Institute Molecular Screening Center, 2013).

Assays:
Test in all cases: CYP1A2, 2C9, 2D6, 3A4 inhibition – biochemical, LC-MS, ADME assay for V1a-R antagonist project, late-stage follow-up (AID 743029)
[1] = target: Cytochrome P450 3A4 (Homo sapiens) (UniProt P08684); conditions: human CYP isoforms, marker substrate metabolism, CYP3A4, at 10 µM, stronger effect = higher value
[2] = target: Cytochrome P450 2C9 (Homo sapiens) (UniProt P11712); conditions: human CYP isoforms, marker substrate metabolism, CYP2C9, at 10 µM, stronger effect = higher value
[3] = target: Cytochrome P450 1A2 (Homo sapiens) (UniProt P05177); conditions: human CYP isoforms, marker substrate metabolism, CYP1A2, at 10 µM, stronger effect = higher value
[4] = target: Cytochrome P450 2D6 (Homo sapiens) (UniProt P10635); conditions: human CYP isoforms, marker substrate metabolism, CYP2D6, at 10 µM, stronger effect = higher value
Sequence of Cytochrome P450 2D6 (Homo sapiens) (P10635 whole entry, looked up, canonical isoform): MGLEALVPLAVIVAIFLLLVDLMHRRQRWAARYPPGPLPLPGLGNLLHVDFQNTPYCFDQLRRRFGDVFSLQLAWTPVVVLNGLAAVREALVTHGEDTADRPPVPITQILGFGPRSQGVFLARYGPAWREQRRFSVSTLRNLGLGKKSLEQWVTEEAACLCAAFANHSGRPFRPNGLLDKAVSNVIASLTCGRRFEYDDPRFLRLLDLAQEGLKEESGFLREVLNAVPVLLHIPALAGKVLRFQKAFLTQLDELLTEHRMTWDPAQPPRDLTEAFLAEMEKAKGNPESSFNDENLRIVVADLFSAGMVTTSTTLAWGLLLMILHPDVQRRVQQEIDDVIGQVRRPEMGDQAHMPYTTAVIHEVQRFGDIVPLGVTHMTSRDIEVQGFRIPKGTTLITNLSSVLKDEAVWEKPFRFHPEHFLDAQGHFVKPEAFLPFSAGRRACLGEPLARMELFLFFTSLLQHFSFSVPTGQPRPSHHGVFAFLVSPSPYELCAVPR

Sequence of Cytochrome P450 1A2 (Homo sapiens) (P05177 whole entry, looked up, canonical isoform): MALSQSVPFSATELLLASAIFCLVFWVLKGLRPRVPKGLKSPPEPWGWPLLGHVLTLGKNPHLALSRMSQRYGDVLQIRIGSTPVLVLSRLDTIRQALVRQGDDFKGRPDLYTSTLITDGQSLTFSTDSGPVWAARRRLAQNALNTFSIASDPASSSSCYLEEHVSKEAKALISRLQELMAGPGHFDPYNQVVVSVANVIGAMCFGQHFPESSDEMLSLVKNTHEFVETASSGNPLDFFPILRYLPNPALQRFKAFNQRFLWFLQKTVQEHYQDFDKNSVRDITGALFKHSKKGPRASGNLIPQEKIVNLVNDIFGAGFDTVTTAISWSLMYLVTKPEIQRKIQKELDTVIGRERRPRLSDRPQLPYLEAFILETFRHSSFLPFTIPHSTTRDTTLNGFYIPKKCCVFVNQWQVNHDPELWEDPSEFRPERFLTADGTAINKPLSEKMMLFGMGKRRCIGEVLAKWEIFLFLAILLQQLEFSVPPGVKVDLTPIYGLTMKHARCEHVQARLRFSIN
Sequence of Cytochrome P450 3A4 (Homo sapiens) (P08684 whole entry, looked up, canonical isoform): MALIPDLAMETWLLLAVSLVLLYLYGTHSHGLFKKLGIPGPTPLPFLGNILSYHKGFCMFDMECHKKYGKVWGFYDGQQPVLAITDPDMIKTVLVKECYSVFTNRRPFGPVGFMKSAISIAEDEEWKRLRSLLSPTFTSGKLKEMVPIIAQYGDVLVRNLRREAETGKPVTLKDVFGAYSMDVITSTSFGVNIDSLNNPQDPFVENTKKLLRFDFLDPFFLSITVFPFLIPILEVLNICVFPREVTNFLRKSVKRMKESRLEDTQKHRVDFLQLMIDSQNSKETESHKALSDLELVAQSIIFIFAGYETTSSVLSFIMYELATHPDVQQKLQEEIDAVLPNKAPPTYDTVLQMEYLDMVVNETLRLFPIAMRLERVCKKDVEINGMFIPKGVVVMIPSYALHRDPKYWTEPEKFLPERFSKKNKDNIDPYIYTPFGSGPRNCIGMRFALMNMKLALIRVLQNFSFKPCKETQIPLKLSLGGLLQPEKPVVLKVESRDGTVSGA
Sequence of Cytochrome P450 2C9 (Homo sapiens) (P11712 whole entry, looked up, canonical isoform): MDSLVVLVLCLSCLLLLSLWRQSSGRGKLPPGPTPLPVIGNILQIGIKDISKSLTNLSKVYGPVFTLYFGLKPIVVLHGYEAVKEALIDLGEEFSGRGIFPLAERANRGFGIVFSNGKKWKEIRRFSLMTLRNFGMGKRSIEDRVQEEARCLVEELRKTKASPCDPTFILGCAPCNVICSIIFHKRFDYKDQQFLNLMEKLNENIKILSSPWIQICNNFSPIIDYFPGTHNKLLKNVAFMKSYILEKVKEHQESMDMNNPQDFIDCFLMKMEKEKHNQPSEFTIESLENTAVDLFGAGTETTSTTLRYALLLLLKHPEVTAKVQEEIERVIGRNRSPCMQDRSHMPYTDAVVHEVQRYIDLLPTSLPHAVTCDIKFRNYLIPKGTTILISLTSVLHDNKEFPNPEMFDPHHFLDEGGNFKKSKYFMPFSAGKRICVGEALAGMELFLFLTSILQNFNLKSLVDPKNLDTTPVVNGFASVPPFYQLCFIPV

- inhibition [1]: -5%
- inhibition [2]: -6%
- inhibition [3]: -19%
- inhibition [4]: 2%
SMILES: O=C(C1CCN(c2ccc(Cl)cn2)CC1)N(CC1CC1)c1ccc(Cl)cc1
